Measurements: patent US20260049101A1, “TOPICAL TREATMENT OF SKIN CANCER USING OLIGOPEPTIDES” (BACOBA AG, priority 2022, published 2026)
Numbered stars: 1 amine (or outer) side, 2 acyl side, 3 side chain; on linkers, the order of the positions; unused ones are H or OH. Square brackets hold non-standard residues; d marks the D form. Peptide text beside a SMILES is read from it. * marks the point of attachment. Abu(4,4,4-F3) = N[C@@H](CC(F)(F)F)C(=O)O; NH(2-morpholinoethyl) = C(CN1CCOCC1)N*; X4 = C[C@](N[*:1])(C(=O)[*:2])C(F)(F)F; NH(1-CH2NMe2-cBu) = CN(C)CC1(N*)CCC1; Oxazole4CO(2-Me) = Cc1nc(C(=O)*)co1; Benzoyl(4-F) = O=C(c1ccc(F)cc1)*; hCha = N[C@@H](CCC1CCCCC1)C(=O)O; Nle = CCCC[C@H](N)C(=O)O; Aib = CC(C)(N)C(=O)O; X3 = CN(CCN*)CC(F)F; βAla = NCCC(=O)O

Test system: cutaneous squamous cell carcinoma cell line SCC12
Experiment: In vitro anti-proliferative assay (resazurin) in SCC12
Type: cell-based
Details: SCC12, 72 hours
Description: Methodology. The cutaneous squamous cell carcinoma cell culture SCC12 was cultivated in keratinocyte-SFM media (KSFM, Cat #17005042, Gibco) supplemented with human recombinant epidermal growth factor 1-53 (EGF 1-53) and bovine pituitary extract (BFE).
Vehicle treated wells were set to 100% viability.

| Structure (SMILES) | IC50 |
| --- | --- |
| CC(C)C[C@H](NC(=O)[C@H](CCC1CCCCC1)NC(=O)[C@@H]1CCCN1C(=O)c1ccc(F)cc1)C(=O)NC(C)(C)C(=O)N[C@@H](CC(C)C)C(=O)N[C@@H](CC(F)(F)F)C(=O)NC(C)(C)C(=O)NC(C)(C)C(=O)NCCC(=O)NC1(CN(C)C)CCC1 [Compound 21369, (2S)-2-[(2S)-4-cyclohexyl-2-{[(2S)-1-(4-fluorobenzoyl)-pyrrolidin-2-yl]formamido}butan-amido]-N-(1-{[(1S)-1-{[(1S)-1-({1-[(1-{[2-({1-[(dimethylamino)methyl]cyclobutyl}carba-moyl)ethyl]carbamoyl}-1-methylethyl)carbamoyl]-1-methylethyl}carbamoyl)-3,3,3-trifluoropropyl]carbamoyl}-3-methylbutyl]carbamoyl}-1-methylethyl)-4-methylpentanamide] ({Benzoyl(4-F)}-P[hCha]L[Aib]L[Abu(4,4,4-F3)][Aib][Aib][βAla]-{NH(1-CH2NMe2-cBu)}) | 0.167 µM |
| CC(C)C[C@H](NC(=O)[C@H](CCC1CCCCC1)NC(=O)[C@@H]1CCCN1C(=O)c1ccc(F)cc1)C(=O)NC(C)(C)C(=O)N[C@@H](CC(C)C)C(=O)N[C@@H](CC(C)C)C(=O)NC(C)(C)C(=O)NC(C)(C)C(=O)NCCC(=O)NCCN1CCOCC1 [Compound 8341, (2S)-2-[(2S)-4-cyclohexyl-2-{[(2S)-1-(4-fluorobenzoyl)pyrrolidin-2-yl]formamido}butanamido]-4-methyl-N-(1-methyl-1-{[(1S)-3-methyl-1-{[(1S)-3-methyl-1-{[1-methyl-1-({1-methyl-1-[(2-{[2-(morpholin-4-yl)ethyl]carbamoyl}ethyl)carbamoyl]ethyl}carbamoyl)ethyl]carbamoyl}butyl]carbamoyl}butyl]carbamoyl}ethyl)pentanamide] ({Benzoyl(4-F)}-P[hCha]L[Aib]LL[Aib][Aib][βAla]-{NH(2-morpholinoethyl)}) | 1.02 µM |
| CC(C)C[C@H](NC(=O)[C@H](CC(C)C)NC(=O)[C@](C)(NC(=O)[C@H](CC(C)C)NC(=O)[C@H](CCC1CCCCC1)NC(=O)[C@@H]1CCCN1C(=O)c1ccc(F)cc1)C(F)(F)F)C(=O)NC(C)(C)C(=O)NC(C)(C)C(=O)NCCC(=O)NC1(CN(C)C)CCC1 [Compound 21362, (2S)-2-[(2S)-4-cyclohexyl-2-{[(2S)-1-(4-fluorobenzoyl)pyrrolidin-2-yl]formamido}butanamido]-N-[(1S)-1-{[(1S)-1-{[(1S)-1-({1-[(1-{[2-({1-[(dimethylamino)methyl]cyclobutyl}carbamoyl)ethyl]carbamoyl}-1-methylethyl)carbamoyl]-1-methylethyl}carbamoyl)-3-methylbutyl]carbamoyl}-3-methylbutyl]carbamoyl}-2,2,2-trifluoro-1-methylethyl]-4-methylpentanamide] ({Benzoyl(4-F)}-P[hCha]L[X4]LL[Aib][Aib][βAla]-{NH(1-CH2NMe2-cBu)}) | 0.717 µM |
| CC(C)C[C@H](NC(=O)[C@H](CCC1CCCCC1)NC(=O)[C@@H]1CCCN1C(=O)c1ccc(F)cc1)C(=O)NC(C)(C)C(=O)N[C@@H](CC(C)C)C(=O)N[C@@H](CC(C)C)C(=O)NC(C)(C)C(=O)NC(C)(C)C(=O)NCCC(=O)NCCN(C)CC(F)F [Compound 8342, (2S)-2-[(2S)-4-cyclohexyl-2-{[(2S)-1-(4-fluorobenzoyl)pyrrolidin-2-yl]formamido}butanamido]-N-(1-{[(1S)-1-{[(1S)-1-({1-[(1-{[2-({2-[(2,2-difluoroethyl)(methyl)amino]ethyl}carbamoyl)ethyl]carbamoyl}-1-methylethyl)carbamoyl]-1-methylethyl}carbamoyl)-3-methylbutyl]carbamoyl}-3-methylbutyl]carbamoyl}-1-methylethyl)-4-methylpentanamide] ({Benzoyl(4-F)}-P[hCha]L[Aib]LL[Aib][Aib][βAla]-X3) | 0.584 µM |
| CCCC[C@H](NC(=O)[C@@H]1CCCN1C(=O)c1coc(C)n1)C(=O)N[C@@H](CC(C)C)C(=O)NC(C)(C)C(=O)N[C@@H](CC(C)C)C(=O)N[C@@H](CC(C)C)C(=O)NC(C)(C)C(=O)NC(C)(C)C(=O)NCCC(=O)NC1(CN(C)C)CCC1 [Compound 6781, (2S)—N-[(1S)-1-[(1-{[(1S)-1-{[(1S)-1-({1-[(1-{[2-({1-[(dimethylamino)methyl]cyclobutyl}carbamoyl)ethyl]carbamoyl}-1-methylethyl)carbamoyl]-1-methylethyl}carbamoyl)-3-methylbutyl]carbamoyl}-3-methylbutyl]carbamoyl}-1-methylethyl)carbamoyl]-3-methylbutyl]-2-{[(2S)-1-(2-methyl-1,3-oxazole-4-carbonyl)pyrrolidin-2-yl]formamido}hexanamide] ({Oxazole4CO(2-Me)}-P[Nle]L[Aib]LL[Aib][Aib][βAla]-{NH(1-CH2NMe2-cBu)}) | 6.85 µM |
| COc1ccc(-c2ccc(OC[C@H](NC(=O)[C@@H]3CCCN3C(=O)c3ccc(F)cc3)C(=O)N[C@@H](CC(C)C)C(=O)NC(C)(C)C(=O)N[C@@H](CC(C)C)C(=O)N[C@@H](CC(C)C)C(=O)NC(C)(C)C(=O)NC(C)(C)C(=O)NCCC(=O)NC3(CN(C)C)CCC3)cc2)cc1 [Compound 7824, (2S)—N-{1-[(1-{[2-({1-[(dimethylamino)methyl]cyclobutyl}carbamoyl)ethyl]carbamoyl}-1-methylethyl)carbamoyl]-1-methylethyl}-2-[(2S)-2-{2-[(2S)-2-[(2S)-2-{[(2S)-1-(4-fluorobenzoyl)pyrrolidin-2-yl]formamido}-3-({4′-methoxy-[1,1′-biphenyl]-4-yl}oxy)propanamido]-4-methylpentanamido]-2-methylpropanamido}-4-methylpentanamido]-4-methylpentanamide] | 0.375 µM |
| Cc1nc(C(=O)N2CCC[C@H]2C(=O)N[C@@H](Cc2ccccc2)C(=O)N[C@@H](CC(C)C)C(=O)NC(C)(C)C(=O)N[C@@H](CC(C)C)C(=O)N[C@@H](CC(C)C)C(=O)NC(C)(C)C(=O)NC(C)(C)C(=O)NCCC(=O)NC2(CN(C)C)CCC2)co1 [Compound 6328, (2S)—N-(1-{[(1S)-1-{[(1S)-1-({1-[(1-{[2-({1-[(dimethylamino)methyl]cyclobutyl}carbamoyl)ethyl]carbamoyl}-1-methylethyl)carbamoyl]-1-methylethyl}carbamoyl)-3-methylbutyl]carbamoyl}-3-methylbutyl]carbamoyl}-1-methylethyl)-4-methyl-2-[(2S)-2-{[(2S)-1-(2-methyl-1,3-oxazole-4-carbonyl)pyrrolidin-2-yl]formamido}-3-phenylpropanamido]pentanamide] ({Oxazole4CO(2-Me)}-PFL[Aib]LL[Aib][Aib][βAla]-{NH(1-CH2NMe2-cBu)}) | 1.66 µM |
